Data from paper PMC8742467, “Therapeutical interference with the epigenetic landscape of germ cell tumors: a comparative drug study and new mechanistical insights” (Clinical Epigenetics, 2022).

Key:
[1] = test system: DNA methylation (5mC, 5hmC) in 2102EP cells; assay: DNA slot blot (5mC, 5hmC); assay type: cell-based, Human; details: 24 h
Protocol: Purity of DNA was verified using NanoDrop 260/280 ratio and agarose gel electrophoresis. DNA was diluted in H2O to 200 ng, 100 ng and 50 ng in 200 µl per slot. Slot-Blotter device (Carl Roth GmbH + Co KG, Karlsruhe, Germany) was assembled as according to the manual. DNA was blotted onto a positively charged nylon membrane (Carl Roth GmbH + Co KG, Karlsruhe, Germany) using vacuum application. Three identical membranes were prepared. The membranes were air-dried for 15—20 min and UV-crosslinked (20 s (s), 1200 mJ/cm^2). One membrane was stained with methylene blue (0.02% methylene blue (Merck Millipore, Darmstadt, Germany) in 0.3 M sodium acetate (pH 5.2)) to validate DNA loading across the samples. The remaining two membranes were blocked in 5% milk powder in PBST for 1 h at RT. Membranes were incubated with 5mC or 5hmC antibody overnight at 4 °C. After washing, membranes were incubated with secondary antibody for 2 h at RT. Signals were detected using the ChemiDoc Imaging Systems (Bio-Rad Laboratories, Feldkirchen, Germany).

GCT cell lines = assay: XTT cell viability assay, GCT cell lines (pre-screen / summary); assay type: cell-based, Human; details: first pre-screen, SE and EC proxies TCam-2 and 2102EP, XTT
How it was run: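 Seeding density of 5 × 10^3 cells per well applied to both tumour and fibroblast lines; compounds or vehicle followed after overnight attachment. Metabolic activity by XTT, four technical repeats, EC50 calculated.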

[2] = test system: histone modifications in 2102EP cells; assay: Mass spectrometry analysis of histone modifications (Mod Spec); assay type: cell-based, Human
Protocol: 2102EP cells were treated with the EC50 concentrations for Quisinostat, JIB-04, Chaetocin, MZ-1, LP99, PRT4165, GSK343 and DMSO as solvent control. The cells were harvested via trypsinization after 16 h. The mass spectrometric analysis of histone modifications was outsourced to the Mod Spec service by Active Motif (Carlsbad, CA, USA). Histone extraction and mass spectrometric analysis was performed as described previously. Raw data were transformed into z-scores as the input. The heatmap was generated in R using ‘pheatmap’ with default settings and provided by Active Motif.

fibroblast control cells = assay: Flow cytometry apoptosis (Annexin V/PI), fibroblasts; assay type: cell-based, Human; details: EC50, 16 h
Protocol: (§1) For Annexin V/PI staining, cells were washed with Annexin V Binding Buffer before being resuspended in 70 µl Annexin V Binding Buffer and 2.5 μl Annexin V FITC-conjugate (both Miltenyi Biotec, Bergisch Gladbach, Germany) and 15 µg PI (Sigma-Aldrich, Taufkirchen, Germany) and incubated in the dark at room temperature for 15 min. 500 µl of Annexin V Binding Buffer was added before measurement. For the cell cycle analysis, cells were washed with PBS (phosphate buffered saline), fixed by ice cold 70% ethanol and stained with 2 µg/ml PI and 200 µg/ml RNaseA (Quiagen, Hilden, Germany 100 mg/ml) in PBS shortly before every measurement. At least 5 × 10^4 cells were counted and analyzed using the MACSQuant software v 2.13.0.

[3] = test system: phosphorylated kinase targets in 2102EP cells; assay: Proteome Profiler Human Phospho-Kinase Array; assay type: cell-based; details: 16 h
Protocol: For the detection of phosphorylated kinase targets, the Proteome Profiler Human Phospho-Kinase Array Kit (R&D Systems, Abingdon, UK) was used according to the manufacturer’s instructions. The ChemiDoc Imaging System (Bio-Rad Laboratories, Feldkirchen, Germany) was used for detection. 2102EP cells were harvested after 16 h of treatment with the epi-drugs. Pixel density was analyzed using Fiji ImageJ 1.53c.

[4] = test system: transcriptome of 2102EP cells; assay: RNA sequencing; assay type: cell-based, Human; details: 16 h
Protocol: Transcriptome analysis has been performed as previously described at the core facility ‘Genomics & Transcriptomics’ (Prof. Dr. Karl Köhrer, Biomedical Research Center, Heinrich Heine University, Düsseldorf, Germany) and has been publicly shared via GEO (https://www.ncbi.nlm.nih.gov/geo/, GSE189472). RNA samples were quantified and measured as previously described. Statistical analyses were performed using the ‘Differential Expression in two groups’ tool (version 1.02) (Qiagen) and the resulting p values were corrected for multiple testing by false discovery rate (FDR). Accompanying PCA and heatmap were generated using Qlucore Omics Explorer 3.7 (Qlucore AB, Lund, Sweden). Values of solvent controls wereaveraged from the studies GSE189472, GSE190792 and GSE190022 [95].

GCT cells = assay: Flow cytometry cell cycle (PI), GCT cells; assay type: cell-based, Human; details: EC50, 16 h
Protocol: as §1

2102EP-R [5] = assay: Flow cytometry cell cycle (PI), 2102EP-R; assay type: cell-based, Human; details: EC50, 16 h
Protocol: as §1

2102EP-R [6] = assay: Flow cytometry apoptosis (Annexin V/PI), 2102EP-R; assay type: cell-based, Human; details: EC50, 16 h, compared to the parental cell line
[7] = 2102EP cells, Mod Spec raw data

Cc1ncsc1-c1ccc(CNC(=O)[C@@H]2C[C@@H](O)CN2C(=O)[C@@H](NC(=O)COCCOCCOCCNC(=O)C[C@@H]2N=C(c3ccc(Cl)cc3)c3c(sc(C)c3C)-n3c(C)nnc32)C(C)(C)C)cc1 [MZ-1]
5hmC levels increase compared to solvent control [1]: 19% | 5mC levels compared to solvent control ([1]; solvent control set to 100%): 70% | EC50 / effective concentration in words (GCT cell lines): nanomolar range | H1.4: K25AC, % of peptide pool [2, 7]: 0.008625% | H1.4: K25ME1, % of peptide pool [2, 7]: 2.068% | H1.4: K25ME2, % of peptide pool [2, 7]: 0.007907% | H1.4: K25ME3, % of peptide pool [2, 7]: 0.004447% | H1.4: K25UN, % of peptide pool [2, 7]: 97.9109% | H2A1: K13AC, % of peptide pool [2, 7]: 0.01664% | H2A1: K13UN, % of peptide pool [2, 7]: 99.9834% | H2A1: K15AC, % of peptide pool [2, 7]: 0.002429% | H2A1: K15UB, % of peptide pool [2, 7]: 0% | H2A1: K15UN, % of peptide pool [2, 7]: 99.9976% | H2A3: K13AC, % of peptide pool [2, 7]: 0.02309% | H2A3: K13UN, % of peptide pool [2, 7]: 99.9769% | H2A3: K15AC, % of peptide pool [2, 7]: 0.2972% | H2A3: K15UB, % of peptide pool [2, 7]: 0% | H2A3: K15UN, % of peptide pool [2, 7]: 99.7028% | H2A: K5AC, % of peptide pool [2, 7]: 16.7692% | H2A: K5UN, % of peptide pool [2, 7]: 83.2308% | H2A: K9AC, % of peptide pool [2, 7]: 1.92% | H2A: K9UN, % of peptide pool [2, 7]: 98.08% | H2A: K36AC, % of peptide pool [2, 7]: 0.02873% | H2A: K36UN, % of peptide pool [2, 7]: 99.9713% | H3: K9AC, % of peptide pool [2, 7]: 0.8879% | H3: K9ME1, % of peptide pool [2, 7]: 31.6276% | H3: K9ME2, % of peptide pool [2, 7]: 28.3662% | H3: K9ME3, % of peptide pool [2, 7]: 2.878% | H3: K9UN, % of peptide pool [2, 7]: 36.24% | H3: K14AC, % of peptide pool [2, 7]: 33.1456% | H3: K14UN, % of peptide pool [2, 7]: 66.8544% | H3: K18AC, % of peptide pool [2, 7]: 15.0157% | H3: K18ME1, % of peptide pool [2, 7]: 0.179% | H3: K18UN, % of peptide pool [2, 7]: 84.8052% | H3: K23AC, % of peptide pool [2, 7]: 21.7451% | H3: K23ME1, % of peptide pool [2, 7]: 0.008431% | H3: K23UN, % of peptide pool [2, 7]: 78.2464% | H3: K56AC, % of peptide pool [2, 7]: 0.06901% | H3: K56ME1, % of peptide pool [2, 7]: 0.03638% | H3: K56UN, % of peptide pool [2, 7]: 99.8946% | H3: K64AC, % of peptide pool [2, 7]: 0.06102% | H3: K64UN, % of peptide pool [2, 7]: 99.939% | H3: K79AC, % of peptide pool [2, 7]: 0.05432% | H3: K79ME1, % of peptide pool [2, 7]: 14.344% | H3: K79ME2, % of peptide pool [2, 7]: 7.357% | H3: K79ME3, % of peptide pool [2, 7]: 10.1837% | H3: K79UN, % of peptide pool [2, 7]: 68.0612% | H3: K122AC, % of peptide pool [2, 7]: 0.03608% | H3: K122UN, % of peptide pool [2, 7]: 99.9639% | H3: Q19ME1, % of peptide pool [2, 7]: 0.004515% | H3: Q19UN, % of peptide pool [2, 7]: 99.9955% | H3: Q55ME1, % of peptide pool [2, 7]: 0.1937% | H3: Q55UN, % of peptide pool [2, 7]: 99.8063% | H3: R42ME2, % of peptide pool [2, 7]: 1.387% | H3: R42UN, % of peptide pool [2, 7]: 98.6131% | H3: R49ME2, % of peptide pool [2, 7]: 3.092% | H3: R49UN, % of peptide pool [2, 7]: 96.9084% | H3R2UN: K4AC, % of peptide pool [2, 7]: 0.04633% | H3R2UN: K4ME1, % of peptide pool [2, 7]: 16.637% | H3R2UN: K4ME2, % of peptide pool [2, 7]: 0.2165% | H3R2UN: K4ME3, % of peptide pool [2, 7]: 0.04192% | H3R2UN: K4UN, % of peptide pool [2, 7]: 83.0582% | H3R2UN: Q5ME1, % of peptide pool [2, 7]: 0.08148% | H3R2UN: Q5UN, % of peptide pool [2, 7]: 99.9185% | H3.1: K27AC, % of peptide pool [2, 7]: 2.915% | H3.1: K27ME1, % of peptide pool [2, 7]: 46.4162% | H3.1: K27ME2, % of peptide pool [2, 7]: 19.546% | H3.1: K27ME3, % of peptide pool [2, 7]: 2.363% | H3.1: K27UN, % of peptide pool [2, 7]: 28.7602% | H3.1: K36AC, % of peptide pool [2, 7]: 0.09043% | H3.1: K36ME1, % of peptide pool [2, 7]: 14.1558% | H3.1: K36ME2, % of peptide pool [2, 7]: 48.8646% | H3.1: K36ME3, % of peptide pool [2, 7]: 20.4408% | H3.1: K36UN, % of peptide pool [2, 7]: 16.4484% | H3.3: K27AC, % of peptide pool [2, 7]: 6.233% | H3.3: K27M, % of peptide pool [2, 7]: 0% | H3.3: K27ME1, % of peptide pool [2, 7]: 47.8396% | H3.3: K27ME2, % of peptide pool [2, 7]: 15.5733% | H3.3: K27ME3, % of peptide pool [2, 7]: 3.5424% | H3.3: K27UN, % of peptide pool [2, 7]: 26.8119% | H3.3: K36AC, % of peptide pool [2, 7]: 1.864% | H3.3: K36ME1, % of peptide pool [2, 7]: 12.2128% | H3.3: K36ME2, % of peptide pool [2, 7]: 53.2755% | H3.3: K36ME3, % of peptide pool [2, 7]: 19.9611% | H3.3: K36UN, % of peptide pool [2, 7]: 12.6864% | H4: K5AC, % of peptide pool [2, 7]: 7.836% | H4: K5UN, % of peptide pool [2, 7]: 92.164% | H4: K8AC, % of peptide pool [2, 7]: 12.4074% | H4: K8UN, % of peptide pool [2, 7]: 87.5926% | H4: K12AC, % of peptide pool ([2]; 2102EP cells, Mod Spec raw data, histone H4 K12 acetylated): 7.206 % of peptide pool | H4: K12UN, % of peptide pool ([2]; 2102EP cells, Mod Spec raw data, histone H4 K12 unmodified): 92.7945 % of peptide pool | H4: K16AC, % of peptide pool ([2]; 2102EP cells, Mod Spec raw data, histone H4 K16 acetylated): 49.1827 % of peptide pool | H4: K16UN, % of peptide pool ([2]; 2102EP cells, Mod Spec raw data, histone H4 K16 unmodified): 50.8173 % of peptide pool | H4: K20AC, % of peptide pool ([2]; 2102EP cells, Mod Spec raw data, histone H4 K20 acetylated): 21.1654 % of peptide pool | H4: K20ME2, % of peptide pool ([2]; 2102EP cells, Mod Spec raw data, histone H4 K20 dimethylated): 54.2158 % of peptide pool | H4: K20ME1, % of peptide pool ([2]; 2102EP cells, Mod Spec raw data, histone H4 K20 monomethylated): 4.396 % of peptide pool | H4: K20ME3, % of peptide pool ([2]; 2102EP cells, Mod Spec raw data, histone H4 K20 trimethylated): 2.467 % of peptide pool | H4: K20UN, % of peptide pool ([2]; 2102EP cells, Mod Spec raw data, histone H4 K20 unmodified): 17.7556 % of peptide pool | change of histone modifications of the expected mode of action (Mod Spec) ([2]; 2102EP, EC50, 16 h, vs solvent control): increase in H3K64ac and H2A3K15ac | apoptosis induction in fibroblast control cells (fibroblast control cells): only a weak apoptosis induction | CREB, STAT3 and STAT5 phosphorylation and total levels of β-Catenin and HSP60 [3]: decreased | ERK1/2 phosphorylation [3]: decreased | EIF3CL Log2 fold change vs. DMSO ([4]; sorted data log2>±1.5, FDR p<0.05): -2.31 | A1BG Log2 fold change vs. DMSO ([4]; unsorted data): -0.0752 | A1CF Log2 fold change vs. DMSO ([4]; unsorted data): -1.99 | A2M Log2 fold change vs. DMSO ([4]; unsorted data): 0.0948 | cell cycle phase accumulation in GCT cells (GCT cells): accumulated in the G0/G1 phase | cell cycle arrest in 2102EP-R (2102EP-R [5]): induced a cell cycle arrest | apoptosis induction in 2102EP-R (2102EP-R [6]): did not induce apoptosis
